Converted amounts (≈) assume the structure as drawn. Read-outs that look alike come from different tables or passages of the source.
What was measured:
Assay type in all cases: physicochemical
[1] = Evaluation of the concentration of the drug solution used for the lyophilization (cake formation)
[2] = Solubility of Compound (1) in water with change in pH
Method: Change in solubility with the change in pH of the drug solution of the Compound (1) was measured by the method commonly used in the art.

[3] = Stability test of the lyophilized product produced from drug solution of different pH
Description: Lyophilized products were produced from the drug solution of different pH according to the evaluation of pH of the drug solution used for the lyophilization (1) to evaluate the stability of the Compound (1).

[4] = lyophilized product from drug solution pH 2.5, 60° C., 1 W
[5] = lyophilized product from drug solution pH 2.5, 60° C., 2 W
[6] = lyophilized product from drug solution pH 2.5, Initial
[7] = lyophilized product from drug solution pH 3.5, 60° C., 1 W
[8] = lyophilized product from drug solution pH 3.5, 60° C., 2 W
[9] = lyophilized product from drug solution pH 3.5, Initial
[10] = lyophilized product from drug solution pH 4.5, 60° C., 1 W
[11] = lyophilized product from drug solution pH 4.5, 60° C., 2 W
[12] = lyophilized product from drug solution pH 4.5, Initial

COc1c(N2CC[C@@H](C3(N)CC3)C2)ccc2c(=O)c(C(=O)O)cn([C@@H]3C[C@@H]3F)c12 [Compound (1), 7-[3-(R)-(1-aminocyclopropyl)pyrrolidine-1-yl]-1-[2-(S)-fluoro-1-(R)-cyclopropyl]-1,4-dihydro-8-methoxy-4-oxoquinoline-3-carboxylic acid]
Cake formation (number of vials with cake formation/number of vials tested) ([1]; drug solution 1.25 mg/mL): 0/5
Cake formation (number of vials with cake formation/number of vials tested) ([1]; drug solution 2.5 mg/mL): 4/5
Cake formation (number of vials with cake formation/number of vials tested) ([1]; drug solution 5 mg/mL): 4/5
Cake formation (number of vials with cake formation/number of vials tested) ([1]; drug solution 10 mg/mL): 5/5
Cake formation (number of vials with cake formation/number of vials tested) ([1]; drug solution 15 mg/mL): 5/5
Cake formation (number of vials with cake formation/number of vials tested) ([1]; drug solution 20 mg/mL): 5/5
solubility at 1 week ([2]; aqueous buffer, 5° C., pH 3.5, after 1 W): ≤ 19.6 mg/mL
solubility at 0 week ([2]; aqueous buffer, 5° C., pH 3.5, immediately after preparation): ≤ 20.1 mg/mL
solubility at 1 week ([2]; aqueous buffer, 5° C., pH 4.0, after 1 W): 19 mg/mL (≈ 47.3 mM)
solubility at 0 week ([2]; aqueous buffer, 5° C., pH 4.0, immediately after preparation): ≤ 20.1 mg/mL
solubility at 1 week ([2]; aqueous buffer, 5° C., pH 4.5, after 1 W): 18.8 mg/mL (≈ 46.8 mM)
solubility at 0 week ([2]; aqueous buffer, 5° C., pH 4.5, immediately after preparation): ≤ 20 mg/mL
solubility at 1 week ([2]; aqueous buffer, 5° C., pH 5.0, after 1 W): 18.4 mg/mL (≈ 45.8 mM)
solubility at 1 week ([2]; aqueous buffer, 5° C., pH 5.5, after 1 W): 5.4 mg/mL (≈ 13.5 mM)
solubility at 1 week ([2]; aqueous buffer, 5° C., pH 6.0, after 1 W): 0.7 mg/mL (≈ 1.74 mM)
solubility at 1 week ([2]; aqueous buffer, 25° C., pH 3.5, after 1 W): ≤ 20.1 mg/mL
solubility at 0 week ([2]; aqueous buffer, 25° C., pH 3.5, immediately after preparation): ≤ 20.1 mg/mL
solubility at 1 week ([2]; aqueous buffer, 25° C., pH 4.0, after 1 W): 19.6 mg/mL (≈ 48.8 mM)
solubility at 0 week ([2]; aqueous buffer, 25° C., pH 4.0, immediately after preparation): ≤ 20.1 mg/mL
solubility at 1 week ([2]; aqueous buffer, 25° C., pH 4.5, after 1 W): 20.1 mg/mL (≈ 50.1 mM)
solubility at 0 week ([2]; aqueous buffer, 25° C., pH 4.5, immediately after preparation): ≤ 20.1 mg/mL
solubility at 1 week ([2]; aqueous buffer, 25° C., pH 5.0, after 1 W): 18.7 mg/mL (≈ 46.6 mM)
solubility at 1 week ([2]; aqueous buffer, 25° C., pH 5.5, after 1 W): 4.8 mg/mL (≈ 12 mM)
solubility at 1 week ([2]; aqueous buffer, 25° C., pH 6.0, after 1 W): 0.7 mg/mL (≈ 1.74 mM)
solubility ([2]; aqueous buffer, pH up to pH 5, read-out: Concentration that can be attained in the solution): ≥ 10 mg/mL
solubility ([2]; pH 4.5, aqueous buffer, pH up to 4.5, read-out: Concentration that can be attained in the solution): ≥ 20 mg/mL
Stability of the Compound (1) in the lyophilized products ([3]; drug solution at a pH in the range of 2.5 to 4.5): sufficient stability
Appearance [3, 4]: Yellow
Content in relation to Initial amount (%) [3, 4]: 100.8%
Content in relation to Nominal amount (%) [3, 4]: 96.0%
Total amount of related substance (%) [3, 4]: 0.95%
pH [3, 4]: 2.97
Appearance [3, 5]: Yellow
Content in relation to Initial amount (%) [3, 5]: 96.5%
Content in relation to Nominal amount (%) [3, 5]: 91.9%
Total amount of related substance (%) [3, 5]: 1.10%
pH [3, 5]: 3.05
Appearance [3, 6]: Yellow
Content in relation to Initial amount (%) [3, 6]: 100.0%
Content in relation to Nominal amount (%) [3, 6]: 95.3%
Total amount of related substance (%) [3, 6]: 0.92%
pH [3, 6]: 2.89
Appearance [3, 7]: Yellow
Content in relation to Initial amount (%) [3, 7]: 99.4%
Content in relation to Nominal amount (%) [3, 7]: 96.0%
Total amount of related substance (%) [3, 7]: 0.96%
pH [3, 7]: 3.81
Appearance [3, 8]: Yellow
Content in relation to Initial amount (%) [3, 8]: 99.7%
Content in relation to Nominal amount (%) [3, 8]: 96.2%
Total amount of related substance (%) [3, 8]: 1.17%
pH [3, 8]: 3.86
Appearance [3, 9]: Yellow
Content in relation to Initial amount (%) [3, 9]: 100.0%
Content in relation to Nominal amount (%) [3, 9]: 96.5%
Total amount of related substance (%) [3, 9]: 0.93%
pH [3, 9]: 3.73
Appearance [3, 10]: Yellow
Content in relation to Initial amount (%) [3, 10]: 97.8%
Content in relation to Nominal amount (%) [3, 10]: 91.1%
Total amount of related substance (%) [3, 10]: 1.13%
pH [3, 10]: 4.51
Appearance [3, 11]: Yellow
Content in relation to Initial amount (%) [3, 11]: 100.5%
Content in relation to Nominal amount (%) [3, 11]: 93.5%
Total amount of related substance (%) [3, 11]: 1.31%
pH [3, 11]: 4.53
Appearance [3, 12]: Yellow
Content in relation to Initial amount (%) [3, 12]: 100.0%
Content in relation to Nominal amount (%) [3, 12]: 93.1%
Total amount of related substance (%) [3, 12]: 0.93%
pH [3, 12]: 4.47
